Patent US20250170132A1, “SALTS AND POLYMORPHIC FORMS OF MENIN INHIBITORS AND PHARMACEUTICAL COMPOSITIONS THEREOF” (Syndax Pharmaceuticals, Inc., priority 2023, published 2025)

Columns and labels:
[1] = Scale-up preparation of Form C with DVS; format: physicochemical
Description: Approximately 300 mg of Form A was weighed into a 4 mL glass vial and 2.5 mL of MeCN was added slowly to make a slurry. The sample vial was kept at 50° C. with stirring for 3 days. After 3 days, slurry material was isolated and dried at 40° C. with a N2 bleed.

[2] = Form C screening experiments; format: physicochemical
[3] = Exp. 1/5: reactive crystallization, material 166 mg, citric acid 51 mg, MeCN 1.0 mL, RT
[4] = Exp. 2/6: reactive crystallization, material 166 mg, citric acid 51 mg, EtOAc 1.0 mL, RT
[5] = Exp. 3/7: reactive crystallization, material 166 mg, citric acid 51 mg, MeCN 1.0 mL, 50 °C
[6] = Exp. 4/8: reactive crystallization, material 166 mg, citric acid 51 mg, EtOAc 1.0 mL, 50 °C

| SMILES | DVS (weight gain between 30%-80% RH) ([1]; 1st adsorption cycle) [%] | DVS (weight gain between 30%-80% RH) ([1]; 2nd adsorption cycle) [%] | Post DVS form ([1]; after DVS) | Crystal Form [2, 3] | Crystal Form [2, 4] | Crystal Form [2, 5] | Crystal Form [2, 6] | Crystal Form ([2]; Exp. 11: slurry conditioning, 166 mg, no citric acid, MeCN 1.0 mL, 50 °C) | Crystal Form ([2]; Exp. 12: slurry conditioning, 166 mg, no citric acid, EtOAc 1.0 mL, 50 °C) | Crystal Form ([2]; Exp. 9: slurry conditioning, 166 mg, no citric acid, MeCN 1.0 mL, RT) | Crystal Form ([2]; Exp. 10: slurry conditioning, 166 mg, no citric acid, EtOAc 1.0 mL, RT) | Crystal Form ([2]; Exp. 13: reactive crystallization, citric acid 15 mg, MeCN 0.5 mL, RT (Form C in MeCN; Hazy → FB + Acid)) | Crystal Form ([2]; Exp. 14: reactive crystallization, citric acid 15 mg, MeCN 0.5 mL, RT (FB + Acid in MeCN → CL → Form C)) | Crystal Form ([2]; Exp. 15: citric acid 30 mg, MeCN 0.5 + 1.5 mL, RT, 1:2 of FB:Acid) |
| --- | --- | --- | --- | --- | --- | --- | --- | --- | --- | --- | --- | --- | --- | --- |
| CC#N.CCN(C(=O)c1cc(F)ccc1Oc1cncnc1N1CC2(CCN(CC3CCC(NS(=O)(=O)CC)CC3)CC2)C1)C(C)C.O=C(O)CC(O)(CC(=O)O)C(=O)O (stereo not drawn) [Compound A citrate Form C] | 1.6 | 6.1 | changed to Form-A | – | – | – | – | – | – | – | – | – | – | – |
| CCN(C(=O)c1cc(F)ccc1Oc1cncnc1N1CC2(CCN(C[C@H]3CC[C@H](NS(=O)(=O)CC)CC3)CC2)C1)C(C)C [FB-1] | – | – | – | Form A, w/pattern shift | FB-1 w/extra peaks | Form A → Form C | Essentially Form C | FB-1 | FB-1 | – | – | – | – | – |
| CCN(C(=O)c1cc(F)ccc1Oc1cncnc1N1CC2(CCN(C[C@H]3CC[C@H](NS(=O)(=O)CC)CC3)CC2)C1)C(C)C [FB-2] | – | – | – | Form A, w/pattern shift | FB-2 w/extra peaks | Form A → Form C | Form A | – | – | FB-2 | FB-2 | Form C | Form C | Form C |
